Results on 61 molecules are retold here after PubChem BioAssay AID2765 (Broad Institute, 2010).

Molecules are shown by their SMILES. The source made the active and inactive calls.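 How the source made its calls: active means half-maximal concentration for the rise in caspase light signal at or below ten times the top tested dose; inconclusive means flat fit between 30% and 70% activity, or unreliable curve fit; inactive means the rest.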

The subject of this test is MEF A1-2A-BIM cells, caspase 3/7 luminescence, 3 h. The test can be described thus: caspase activation in A1-2A-BIM MEF cells, dose response, A1 inhibitor project, cell-based, luminescence, retest (AID 2765).

`Cc1cc(=O)oc2c(C)c(OCC(=O)N3CCN(C(=O)C4COc5ccccc5O4)CC3)ccc12` (stereo unspecified): the EC50 is > 35 µM (inactive).

Consider `CCN(CC(=O)Nc1c(F)cccc1F)C(=O)/C=C/c1ccc(C)cc1`, for which the EC50 was > 35 µM (inactive).

Consider `CN(C(=O)c1ccc(NC(=O)C2CCCN(C(=O)OC(C)(C)C)C2)cc1)C1CC1` (stereo unspecified), for which the EC50 was > 35 µM (inactive).

With `CC1CC(C)CN(C(=O)c2ccc(-c3ccc([N+](=O)[O-])cc3)o2)C1` (stereo unspecified), the EC50 was > 35 µM (inactive).

Take `NC(=S)NNC(=O)/C(=C/c1ccc(Br)cc1)NC(=O)c1ccccc1`: the EC50 is > 35 µM (inactive).

In the case of `Cc1ccccc1N=C1NC(=O)C(CO)(CO)S1`, the EC50 is > 35 µM (inactive).

Consider `Cc1ccc(NC(=O)CCN2CCOCC2)cc1C`, for which the EC50 is > 35 µM (inactive).

`COc1ccccc1C(=O)N1CCN(Cc2ccc3c(c2)OCO3)CC1`: the EC50 was > 35 µM (inactive).

Consider `COc1ccc(NC(=O)CN2CCN(CC(=O)Nc3ccccc3Cl)CC2)cc1Cl`, for which the EC50 was > 35 µM (inactive).

As for `CC(C)c1nnc(NC(=O)COC(=O)/C=C/c2ccc([N+](=O)[O-])cc2)s1`, the EC50 was > 35 µM (inactive).

Take `CC1CCN(c2ccc3nnc(CCC(=O)NCc4ccco4)n3n2)CC1`: the EC50 was > 35 µM (inactive).

For the molecule `O=C(CCl)N=c1sccn1Cc1ccccc1Cl`, the EC50 is > 35 µM (inactive).

For the molecule `COC(=O)C[C@H]1c2ccccc2S(=O)(=O)N1c1cccc(OC)c1`, the EC50 is > 35 µM (inactive).

For `CC(=O)n1nc2nc(C)cc(C)c2c1N`, the EC50 was > 35 µM (inactive).

With `COc1ccccc1NC(=O)CC1COc2ccccc2O1` (stereo unspecified), the EC50 is > 35 µM (inactive).

Regarding `Cc1c(CCCC(=O)O)sc(N)c1C(=O)c1cccc(C(F)(F)F)c1`, the EC50 was > 35 µM (inactive).

For the molecule `CNC(C)C(=O)NC(C(=O)N1CCCC1C(=O)NC1CCCc2ccccc21)C(C)C` (stereo unspecified), the EC50 was > 35 µM (inactive).

Take `O=C(NCCc1ccccc1)C(c1cccs1)N(C(=O)CCl)c1ccc(Cl)cc1` (stereo unspecified): the half-maximal effective concentration (EC50) is 7.95 µM.

On to `COc1ccc(S(=O)(=O)N2CC(O)CC2C(=O)OCc2nc3sc(C)c(C)c3c(=O)[nH]2)cc1` (stereo unspecified), for which the EC50 was > 35 µM (inactive).

Take `COc1ccc(OC)c2[nH]c(C(=O)N3CCC(C(=O)O)CC3)cc12`: the EC50 was > 35 µM (inactive).

As for `C=C1/C=C(\C)[C@](C)(O)C[C@H](O)CC(=O)[C@H](O)[C@@H](O)[C@H](C)C[C@H](C)OC(=O)/C(C)=C/CC/C=C/[C@@H]2O[C@H]2C[C@H](C)C1`, the EC50 is > 35 µM (inactive).

As to `CC(C)CC(=O)c1c[nH]c(C(=O)NCc2ccccc2)c1`, the EC50 is > 35 µM (inactive).

With `COC(=O)c1c(NC(=O)C2CC(C)=C(C)CC2C(=O)O)sc2c1CCCCC2` (stereo unspecified), the EC50 is > 35 µM (inactive).

Take `O=C(Nc1ccc([N+](=O)[O-])cn1)c1cc(-c2cccc(Br)c2)nc2ccccc12`: the EC50 is > 35 µM (inactive).

With `COc1ccc2[nH]c(=O)c(CN(CC3CCCO3)C(=O)Nc3ccccc3)cc2c1` (stereo unspecified), the EC50 was > 35 µM (inactive).

With `Cc1ccc(NC(=O)CN(C)S(=O)(=O)c2cnc[nH]2)c(C)c1`, the EC50 was > 35 µM (inactive).

Turning to `COc1cc(S(=O)(=O)Nc2ccncc2)ccc1F`, the EC50 is > 35 µM (inactive).

As for `COc1cc(/C=C/[N+](=O)[O-])ccc1OC(=O)c1cccnc1`, the 50% effective concentration (EC50) is 12.5 µM.

For the molecule `CCCc1nc2cc3c(cc2[nH]1)n(C)c(=O)n3C`, the EC50 was > 35 µM (inactive).

Regarding `CN(C)C(=O)[C@@H]1C[C@H]1[C@@H](NC(=O)OCc1ccccc1)c1ccccc1`, the EC50 was > 35 µM (inactive).

With `O=C(CCC(=O)c1cccs1)OCC(=O)c1ccccc1`, the EC50 was > 35 µM (inactive).

Turning to `O=C(O)c1cn(-c2ccccc2)c(=O)c2ccccc12`, the EC50 was > 35 µM (inactive).

In the case of `COC(=O)c1ccc(NC(=O)CCN2CCN(c3ccccc3)CC2)cc1`, the EC50 is > 35 µM (inactive).

On to `COc1ccc(N2CCN(C(=O)C3CCN(C(=O)c4ccc([N+](=O)[O-])cc4)CC3)CC2)cc1`, for which the EC50 is > 35 µM (inactive).

Take `CCCC(=O)Nc1ncnc2c1ncn2[C@@H]1O[C@@H]2OP(=O)(O)OC[C@H]2[C@H]1OC(=O)CCC`: the EC50 is > 35 µM (inactive).

With `Cc1cccc(C)c1NC(=O)CSc1nc(C)c(CC(=O)c2ccc(Br)cc2)c(C)c1C#N`, the EC50 was 30.2 µM.

As for `COc1ccccc1C(=O)Nc1ccnn1C1CCN(Cc2cn(C)c3ccccc23)CC1`, the EC50 was > 35 µM (inactive).

As to `FC(F)(F)c1cccc(Cc2noc(CN3CCCC(OCc4ccccn4)C3)n2)c1` (stereo unspecified), the EC50 is > 35 µM (inactive).

On to `O=C(O)CN1C(=O)C2C3CC(C2C1=O)C1C(c2ccccc2)c2sc(=O)[nH]c2SC31` (stereo unspecified), for which the EC50 was > 35 µM (inactive).

In the case of `COC(=O)C(C)Oc1cc(OC(C)C(=O)OC)c2c(-c3ccccc3)cc(=O)oc2c1` (stereo unspecified), the EC50 is > 35 µM (inactive).

As for `CCc1nnc(NC(=O)CSc2nc(-c3ccccc3)cc(-c3ccc(F)cc3)c2C#N)s1`, the EC50 is 24.2 µM.

As to `CC(=O)Nc1ccc(NC(=O)c2cc(C)nn2-c2ccccc2)cc1`, the EC50 was > 35 µM (inactive).

For `COc1ccc(CCNC(=O)C2=COCCO2)cc1`, the EC50 is > 35 µM (inactive).

As for `Cc1ccc2c(c1)C(=O)C(=O)N2Cc1ccc(Br)cc1`, the EC50 is > 35 µM (inactive).

With `COc1ccc(NS(=O)(=O)c2cccc(C(=O)OCC(=O)c3c(N)n(C)c(=O)n(C)c3=O)c2)cc1`, the EC50 is > 35 µM (inactive).

`N#Cc1cc(C(=O)c2cc(Br)ccc2O)cn(C2CC2)c1=O`: the EC50 was > 35 µM (inactive).

For `Cn1ccc(=NC=C(C#N)C#N)c2ccccc21`, the EC50 is > 35 µM (inactive).

For `COc1cc(NC(=O)c2ccccc2)c(OC)cc1NC(=O)Cc1ccc(Br)cc1`, the EC50 is > 35 µM (inactive).

On to `Cc1cccc(NC(=O)CSc2nc(C)c(CC(=O)c3ccc(Br)cc3)c(C)c2C#N)c1C`, for which the EC50 is > 35 µM (inactive).

As to `Cc1cc(=O)oc2cc(OCCC[n+]3ccccc3)ccc12`, the EC50 is > 35 µM (inactive).

Consider `Cc1cccc[n+]1CC(=O)c1ccccc1`, for which the EC50 was > 35 µM (inactive).

For `CC(c1ccccc1)n1c(CCCO)nc2ccccc21` (stereo unspecified), the EC50 is > 35 µM (inactive).

Consider `CCc1cccc(CC)c1NC(=O)C1CSC2(C)CCC(=O)N12` (stereo unspecified), for which the EC50 is > 35 µM (inactive).

`CCOC(=O)C1=C(C)N(CCCC(=O)O)C(=O)NC1c1ccccc1OS(=O)(=O)c1ccc(C)cc1` (stereo unspecified): the EC50 was > 35 µM (inactive).

Regarding `CC(C)CC(NC(N)=O)C(=O)OCC(=O)Nc1ccc(SC(F)F)cc1` (stereo unspecified), the EC50 was > 35 µM (inactive).

In the case of `O=C(Nc1ccc(Br)cn1)c1cccc2c1-c1ccccc1C2=O`, the EC50 is > 35 µM (inactive).

`CC(C)(C)C1C/C(=C/c2ccccn2)C(=O)/C(=C/c2ccccn2)C1` (stereo unspecified): the EC50 is 8.46 µM.

Regarding `CC(C)(C)N(Cc1ccccc1)C(=O)COC(=O)CNC(=O)c1ccco1`, the EC50 is > 35 µM (inactive).

As for `CCOc1nc2c(c(-c3cccs3)c1C#N)Cc1ccccc1-2`, the EC50 was > 35 µM (inactive).

Take `NS(=O)(=O)c1ccc(-c2ccc(/C=C3\C(=O)Nc4ccccc43)o2)cc1`: the EC50 is > 35 µM (inactive).

`O=C1ON=C(c2ccc(Cl)cc2)/C1=C/c1ccc(O)cc1`: the EC50 was > 35 µM (inactive).

The term EC50 denotes the concentration needed to bring the measured effect to its halfway point.
